Data on three molecules can be found in patent US9586896B2, “Nitroxyl donors with improved therapeutic index” (Cardioxyl Pharmaceuticals, Inc., priority 2013, dated 2017).

A value given as a limit tells only on which side of the number the result lay.

A short description of data set [1]: In vitro stability (half-life) in human plasma. The data set is classed as in vitro ADME. As to conditions: male, pH 7.4, human plasma pH 7.4, anticoagulant, 37° C., read-out: T1/2 (minutes) Human. The method, then:
(§1) Compound (1), compound (2), and CXL-1020 were tested for their stability in plasma. The assay system comprised (i) PBS, or plasma from rat, dog or human (at least 3 donors, male, pooled) at pH 7.4, and (ii) for tests conducted in plasma, an anticoagulant (sodium heparin or sodium citrate). Each test compound (5 μM) was incubated in PBS or plasma at 37° C. on a THERMOMIXER® with shaking Three samples (n=3) were taken at each of seven sampling time points: 0, 10, 30, 60, 90, 180 and 360 minutes. The samples were immediately combined with 3 volumes (i.e., 3 times the volume of PBS or plasma) of acetonitrile containing 1% formic acid and an internal standard to terminate the reaction. AB SCIEX API 3000 LC-MS/MS analysis of the test compounds was performed without a standard curve. Half-lives (T1/2) of the test compounds were determined from graphs of the percent remaining values using the peak area response ratio.

For another data set, the system named is beagle dogs. The experiment in a line: 24-hour continuous infusion, canine peripheral (cephalic) vein model, clinical pathology. The data set is classed as in vivo. As to conditions: for NOAEL (μg/kg/min), clinical pathology markers: 24 hour i.v. infusion, CAPTISOL 7% w/v pH 4, WBC, fibrinogen, CRP, molar equivalent dose rates to CXL-1020. The method, then: After 24 hours of infusion, clinical pathology changes similar to those observed in previous studies using an implanted central catheter were detected.
Studies were conducted in male and female beagle dogs. Animals were allowed free access to drinking water and a commercial canine diet under standard laboratory conditions. Animals were fasted prior to blood sample collections when indicated by the study protocol. Fluorescent lighting was provided via an automatic timer for approximately 12 hours per day. On occasion, the dark cycle was interrupted intermittently due to study-related activities. Temperature and humidity were monitored and recorded daily and maintained to the maximum extent possible between 64° F. to 84° F. and 30% to 70%, respectively. The dogs were acclimated for a period of at least 1 week. During this period, the animals were weighed weekly and observed with respect to general health and any signs of disease. The animals were acclimated to wearing a jacket for at least three days prior to dose administration. Additionally, the animals were also acclimated to wearing an Elizabethan collar (e-collar) during the jacket acclimation.
Animals were catheterized the day prior to dose administration. A percutaneous catheter was placed (using aseptic technique and sterile bandaging) in the cephalic vein distal to the elbow. The animals were free-moving in their cages during continuous infusion dose administration. To facilitate continuous infusion dose administration, the peripheral catheter was attached to an extension set routed underneath a canine jacket and then attached to a tether infusion system. To prevent the animals from accessing/removing the peripherally placed percutaneous catheter, the catheterization site was bandaged using Vet Wrap and an e-collar was placed on the animals for the duration of the treatment (i.e., the catheterized period). During the pretreatment period, the venous catheter was infused continuously at a rate of approximately 2-4 mL/hr with 0.9% sodium chloride for injection, USP (saline) to maintain catheter patency. Prior to dosing, the infusion system was pre-filled (slow bolus infusion) with the respective dosing solution to ensure that dosing began as soon as the infusion pump was started. The infusion line was connected to a reservoir containing the control or test compound and the infusion was started. Test compositions were infused continuously, at a predetermined constant infusion rate (1 or 2 mL/kg/hr), for 24 hours and were compared at molar equivalent dose rates.
A detailed clinical examination of each animal was performed twice daily and body temperature measurements and blood samples for clinical pathology were collected from all animals pre-dose and 6 hours, 12 hours, 24 hours and 72 hours post start of composition infusion. At the termination of the study, all animals were euthanized at their scheduled necropsy and complete necropsy examinations were performed. Selected tissues were collected, fixed and stored for potential future microscopic examination. The cephalic vein containing the infusion catheter was dissected intact along with the brachial vein and examined along its entire length. The location of the catheter tip was marked on the unfixed specimen. […]

Data set [2] in a line: In vitro stability (half-life) in rat plasma. The data set is classed as in vitro ADME. As to conditions: male, rat plasma pH 7.4, anticoagulant, 37° C., read-out: T1/2 (minutes) Rat. The protocol:
as §1

Where [3] appears, read: dogs, percutaneous catheter in cephalic vein.

Consider `CS(=O)(=O)c1ccccc1S(=O)(=O)NO` [CXL-1020, N-hydroxy-2-methanesulfonylbenzene-1-sulfonamide], for which the half-life at 5 μM in data set [1] stood at 2 min. Besides, the “NOAEL (μg/kg/min), clinical pathology markers” value in the data set on beagle dogs (dogs) is less than 0.03 μg/kg/min. Further, in the data set on beagle dogs (setting [3]), the “finding after 6 hours of infusion” value was “significant edema was observed in the upper forelimb” and the “microscopic pathology after 24 hours of infusion” value was “severe thrombophlebitis at the catheter tip”.
Regarding `Cc1ccc(S(=O)(=O)NO)o1` [Compound (1), N-Hydroxy-5-methylfuran-2-sulfonamide], the half-life at 5 μM is roughly 65 min in data set [1] and 40 min in data set [2]. Moreover, in the data set on beagle dogs (clinical pathology markers), the “improvement in NOAEL relative to CXL-1020” value is given as greater than 660 fold.
Regarding `CS(=O)(=O)c1cccc(S(=O)(=O)NO)c1` [(2), N-Hydroxy-3-methanesulfonylbenzene-1-sulfonamide], the half-life at 5 μM in data set [1] was roughly 37 min; in data set [2] it was 20 min. In addition, in the data set with beagle dogs (dogs), the “NOAEL (μg/kg/min), clinical pathology markers” value is recorded as 3 μg/kg/min.
